These results are taken from patent US20250122182A1 (Isosterix, Inc., priority 2023, published 2025).

The assay has as its target Recombinant KAT6A/MOZ (488-778) protein (Homo sapiens (Human), UniProt Q92794). Briefly: KAT6A AlphaLISA Inhibition Screening Assay. The note with it: for inhibition at 1 µM: read-out: Average Kat6A % inhibition @ 1 μM; for inhibition at 1 µM / Average Kat6A % inhibition @ 1 μM: 1 μM test compound; for inhibition at 10 µM: read-out: Average Kat6A % inhibition @ 10 μM; for inhibition at 10 µM / Average Kat6A % inhibition @ 10 μM: 10 μM test compound. It counts as biochemical. The protocol: The Kat6a inhibitory activity of test compounds was determined using an Alpha Screen-based detection method. The assay reactions were conducted in a volume of 10 μL in Alpha Plate, White 384 well plate (cat #6008280, Perkin Elmer). The enzymatic reactions were performed in assay buffer pH 8.0 (50 mM Tris-HCl, 0.1 mM EDTA, 0.01% Tween-20, 1 mM Dithiothreitol, 0.1% BSA (fatty acid free) and 330 nM TSA (Trichostatin A)). 10 μL reaction volume consisting of 25 nM of Recombinant KAT6A/MOZ (488-778) protein (Active motif, Catalog #81223), 400 nM Acetyl coenzyme A (Catalog #A2056, Sigma), 200 nM of Histone H3 peptide [(amino acids 1-21), biotin-labeled (BPS Biosciences, Catalog #52011)]. Test compounds were screened at different doses starting with 10 μM, 3 fold dilution and 10 point Dose response curve. Enzyme and compounds solution were pre-incubated in assay plate for 60 or 10 min at room temperature then substrate and Acetyl coenzyme A solution were added to the plate. After addition, the plate was sealed with adhesive seals and incubated for 120 minutes at room temperature.
After 120 minutes of incubation, […] of AlphaLISA anti-acetyl-Lysine acceptor beads (Perkin Elmer, Catalog #AL143C) were added to the plate and it was incubated for 60 minutes at room temperature. Then […] of Alpha Streptavidin donor beads (Perkin Elmer, Catalog #6760002S) were added to the plate which was further incubated for 60 minutes at room temperature. After incubation, the alpha signal was recorded by using Perkin Elmer Envision multi-mode reader. Percent inhibition of enzyme activity by test compounds were determined relative to vehicle control.
(In general: Bead proximity is the source of the signal in Alpha formats.)

SMILES strings stand for the structures.

Recombinant KAT6A/MOZ (488-778) protein, sequence (Q92794 488-778): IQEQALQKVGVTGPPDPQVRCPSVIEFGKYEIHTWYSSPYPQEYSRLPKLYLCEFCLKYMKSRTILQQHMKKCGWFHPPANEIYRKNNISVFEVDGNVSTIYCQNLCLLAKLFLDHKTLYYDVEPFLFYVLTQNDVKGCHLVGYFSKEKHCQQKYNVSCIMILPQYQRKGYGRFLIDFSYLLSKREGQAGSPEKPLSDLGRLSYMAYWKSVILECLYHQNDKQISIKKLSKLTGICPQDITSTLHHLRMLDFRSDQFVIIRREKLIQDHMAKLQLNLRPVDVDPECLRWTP

For `CC#CC(=O)NCc1cnn(Cc2cc(OC)c3c(NS(=O)(=O)c4cc(C)c(C)cc4OC)noc3c2)c1` [Syn. Ex. 27, N-((1-((4-methoxy-3-((2-methoxy-4,5-dimethylphenyl)sulfonamido)benzo[d]isoxazol-6-yl)methyl)-1H-pyrazol-4-yl)methyl)but-2-ynamide], the inhibition (commonly the share of the control response that was lost under treatment) at 1 µM is 100% and the inhibition at 10 µM was determined as 100%.
In the case of `C=C(F)C(=O)NCc1cnn(Cc2cc(OC)c3c(NS(=O)(=O)c4cc(C)c(C)cc4OC)noc3c2)c1` [Syn. Ex. 28, 2-fluoro-N-((1-((4-methoxy-3-((2-methoxy-4,5-dimethylphenyl)sulfonamido)benzo[d]isoxazol-6-yl)methyl)-1H-pyrazol-4-yl)methyl)acrylamide], the inhibition at 1 µM was found to be 100% and the inhibition at 10 µM was 100%.
In the case of `CC#CC(=O)NCc1cnn(Cc2cc(OC)c3c(NS(=O)(=O)c4cc5c(cc4OC)CCC5)noc3c2)c1` [Syn. Ex. 29, N-((1-((4-methoxy-3-((6-methoxy-2,3-dihydro-1H-indene)-5-sulfonamido)benzo[d]isoxazol-6-yl)methyl)-1H-pyrazol-4-yl)methyl) but-2-ynamide], the “Average Kat6A % inhibition @ 1 μM” value is given as 100% and the “Average Kat6A % inhibition @ 10 μM” value stood at 100%.
For the compound `C=C(F)C(=O)NCc1cnn(Cc2cc(OC)c3c(NS(=O)(=O)c4cc5c(cc4OC)CCC5)noc3c2)c1` [Syn. Ex. 30, 2-fluoro-N-((1-((4-methoxy-3-((6-methoxy-2,3-dihydro-1H-indene)-5-sulfonamido)benzo[d]isoxazol-6-yl)methyl)-1H-pyrazol-4-yl)methyl)acrylamide], the “Average Kat6A % inhibition @ 1 μM” value came out at 100% and the “Average Kat6A % inhibition @ 10 μM” value amounted to 100%.
With `CCc1ccc(OC)c(S(=O)(=O)Nc2noc3cc(Cn4cc(CNC(=O)OCCNC(=O)OC(C)(C)C)cn4)cc(OC)c23)c1` [Syn. Ex. 31, 2-((tert-butoxycarbonyl)amino)ethyl ((1-((3-((5-ethyl-2-methoxyphenyl)sulfonamido)-4-methoxybenzo[d]isoxazol-6-yl)methyl)-1H-pyrazol-4-yl)methyl)carbamate], the inhibition at 1 µM is 86% and the inhibition at 10 µM was determined as 99%.
Regarding `CCc1ccc(OC)c(S(=O)(=O)Nc2noc3cc(Cn4cc(CNC(=O)OCCN)cn4)cc(OC)c23)c1` [Syn. Ex. 32, 2-aminoethyl ((1-((3-((5-ethyl-2-methoxyphenyl)sulfonamido)-4-methoxybenzo[d]isoxazol-6-yl)methyl)-1H-pyrazol-4-yl)methyl) carbamate], the “Average Kat6A % inhibition @ 1 μM” value is reported as 75% and the “Average Kat6A % inhibition @ 10 μM” value turned out to be 97%.
`COc1ccc(C(C)(C)C)cc1S(=O)(=O)Nc1noc2cc(Cn3cc(CNS(C)(=O)=O)cn3)cc(OC)c12` [Syn. Ex. 33, 5-(tert-butyl)-2-methoxy-N-(4-methoxy-6-((4-(methylsulfonamidomethyl)-1H-pyrazol-1-yl)methyl)benzo[d]isoxazol-3-yl)benzenesulfonamide]: the inhibition at 1 µM came out at 96% and the inhibition at 10 µM was 100%.
For `CCc1ccc(OC)c(S(=O)(=O)Nc2noc3cc(Cn4cc(CNC(=O)OCCO)cn4)cc(OC)c23)c1` [Syn. Ex. 34, 2-hydroxyethyl ((1-((3-((5-ethyl-2-methoxyphenyl)sulfonamido)-4-methoxybenzo[d]isoxazol-6-yl)methyl)-1H-pyrazol-4-yl)methyl)carbamate], in that order: 86% and 100%.
The like results for `C=C(Cl)C(=O)NCc1cnn(Cc2cc(OC)c3c(NS(=O)(=O)c4cc(CC)ccc4OC)noc3c2)c1` [Syn. Ex. 35, 2-chloro-N-((1-((3-((5-ethyl-2-methoxyphenyl)sulfonamido)-4-methoxybenzo[d]isoxazol-6-yl)methyl)-1H-pyrazol-4-yl)methyl)acrylamide] were, in that order, 100% and 100%.
For `C=C(F)C(=O)NCc1cnn(Cc2cc(OC)c3c(NS(=O)(=O)c4ccccc4OCc4ccccc4)noc3c2)c1` [Syn. Ex. 36, N-((1-((3-((2-(benzyloxy)phenyl)sulfonamido)-4-methoxybenzo[d]isoxazol-6-yl)methyl)-1H-pyrazol-4-yl)methyl)-2-fluoroacrylamide], in that order: 93% and 97%.
Take `COc1cc(Cn2cc(CNS(C)(=O)=O)cn2)cc2onc(NS(=O)(=O)c3ccccc3OCc3ccccc3)c12` [Syn. Ex. 37, 2-(benzyloxy)-N-(4-methoxy-6-((4-(methylsulfonamidomethyl)-1H-pyrazol-1-yl)methyl)benzo[d]isoxazol-3-yl)benzenesulfonamide]: the inhibition at 1 µM is 100% and the inhibition at 10 µM is 100%.
In the case of `COc1ccc(C(C)C)cc1S(=O)(=O)Nc1noc2cc(Cn3cc(CNS(C)(=O)=O)cn3)cc(OC)c12` [Syn. Ex. 38, 5-isopropyl-2-methoxy-N-(4-methoxy-6-((4-(methylsulfonamidomethyl)-1H-pyrazol-1-yl)methyl)benzo[d]isoxazol-3-yl)benzenesulfonamide], the inhibition at 1 µM is 100% and the inhibition at 10 µM is 99%.
The like results for `C=C(F)C(=O)N(C)Cc1cnn(Cc2cc(OC)c3c(NS(=O)(=O)c4cc(CC)ccc4OC)noc3c2)c1` [Syn. Ex. 39, N-((1-((3-((5-ethyl-2-methoxyphenyl)sulfonamido)-4-methoxybenzo[d]isoxazol-6-yl)methyl)-1H-pyrazol-4-yl)methyl)-2-fluoro-N-methylacrylamide] were, in that order, 92% and 100%.
On to `C=C(F)C(=O)NCc1cnn(Cc2cc(OC)c3c(NS(=O)(=O)c4ccccc4OC)noc3c2)c1` [Syn. Ex. 40, 2-fluoro-N-((1-((4-methoxy-3-((2-methoxyphenyl)sulfonamido)benzo[d]isoxazol-6-yl)methyl)-1H-pyrazol-4-yl)methyl)acrylamide], for which the inhibition at 1 µM came out at 99% and the inhibition at 10 µM worked out at 99%.
Consider `C=C(F)C(=O)NCc1cnn(Cc2cc(OC)c3c(NS(=O)(=O)c4cc(OC)ccc4OC)noc3c2)c1` [Syn. Ex. 41, N-((1-((3-((2,5-dimethoxyphenyl)sulfonamido)-4-methoxybenzo[d]isoxazol-6-yl)methyl)-1H-pyrazol-4-yl)methyl)-2-fluoroacrylamide], for which the inhibition at 1 µM was 87% and the inhibition at 10 µM worked out at 100%.
Turning to `C=CC(=O)NCc1cnn(Cc2cc(OC)c3c(NS(=O)(=O)c4cc(CC)ccc4OC)noc3c2)c1` [Syn. Ex. 42, N-((1-((3-((5-ethyl-2-methoxyphenyl)sulfonamido)-4-methoxybenzo[d]isoxazol-6-yl)methyl)-1H-pyrazol-4-yl)methyl) acrylamide], the inhibition at 1 µM was found to be 93% and the inhibition at 10 µM amounted to 100%.
The like results for `C=C(F)C(=O)NCc1cnn(Cc2cc(OC)c3c(NS(=O)(=O)c4cc(CC)ccc4OCC#N)noc3c2)c1` [Syn. Ex. 43, N-((1-((3-((2-(cyanomethoxy)-5-ethylphenyl)sulfonamido)-4-methoxybenzo[d]isoxazol-6-yl)methyl)-1H-pyrazol-4-yl)methyl)-2-fluoroacrylamide] were, in that order, 96% and 98%.
As for `CCc1ccc(OCC#N)c(S(=O)(=O)Nc2noc3cc(Cn4cc(CNC(=O)OC)cn4)cc(OC)c23)c1` [Syn. Ex. 44, methyl ((1-((3-((2-(cyanomethoxy)-5-ethylphenyl)sulfonamido)-4-methoxybenzo[d]isoxazol-6-yl)methyl)-1H-pyrazol-4-yl)methyl)carbamate], the inhibition at 1 µM was determined as 97% and the inhibition at 10 µM is 100%.
The like results for `C=C(F)C(=O)NCc1cnn(Cc2cc(OC)c3c(NS(=O)(=O)c4cc(CC)ccc4OCC(N)=O)noc3c2)c1` [Syn. Ex. 45, N-((1-((3-((2-(2-amino-2-oxoethoxy)-5-ethylphenyl)sulfonamido)-4-methoxybenzo[d]isoxazol-6-yl)methyl)-1H-pyrazol-4-yl)methyl)-2-fluoroacrylamide] were, in that order, 85% and 99%.
For `CCc1ccc(OC)c(S(=O)(=O)Nc2noc3cc(Cn4cc(CNC(=O)OCCNC(C)=O)cn4)cc(OC)c23)c1` [Syn. Ex. 48, 2-acetamidoethyl ((1-((3-((5-ethyl-2-methoxyphenyl)sulfonamido)-4-methoxybenzo[d]isoxazol-6-yl)methyl)-1H-pyrazol-4-yl)methyl)carbamate], in that order: 96% and 100%.
For `CCc1ccc(OC)c(S(=O)(=O)Nc2noc3cc(Cn4cc(CNC(=O)C#CCO)cn4)cc(OC)c23)c1` [Syn. Ex. 49, N-((1-((3-((5-ethyl-2-methoxyphenyl)sulfonamido)-4-methoxybenzo[d]isoxazol-6-yl)methyl)-1H-pyrazol-4-yl)methyl)-4-hydroxybut-2-ynamide], in that order: 94% and 100%.
